Experimental data as given in ChEMBL document CHEMBL5107980, “Seeking heterocyclic scaffolds as antivirals against dengue virus” (Eur J Med Chem, 2022).
Values after ≈ are worked out from the molar mass of the structure shown.

How the values were obtained:
[1] = tested on: Aedes aegypti; assay: Larvicidal activity against Aedes aegypti assessed as mortality measured upto 48 hrs; type: functional; conditions: for LC50: Aedes aegypti
[2] = Inhibition of DENV-2 NS5 RdRp polymerase expressed in Escherichia coli Rosetta2(DE3) measured after 1 hr by [alpha-32P]UTP-labeled radio-probe based scintillation counter analysis; parameters: species or system dengue virus type 2
[3] = target: Genome polyprotein (dengue virus type 2) (UniProt P29990); assay: Inhibition of DENV2 NS2B-NS3 protease at 50 uM using Bz-Nle-Lys-Arg-Arg-AMC as substrate measured after 30 mins by spectrofluorometer analysis relative to control
[4] = target: Genome polyprotein (dengue virus type 2, UniProt P29990); assay: Inhibition of DENV2 NS2B-NS3 protease using Bz-Nle-Lys-Arg-Arg-AMC as substrate measured after 30 mins by spectrofluorometer analysis
[5] = target: Genome polyprotein (dengue virus type 2) (UniProt P29990); assay: Inhibition of DENV2 NS2B-NS3 protease at 50 uM using Bz-Nle-Lys-Arg-Arg-AMC as substrate by spectrofluorometer analysis relative to control
[6] = tested on: dengue virus type 2; assay: Antiviral activity against DENV2 infected in hamster BHK-21 cells assessed as inhibition of virus induced cytopathic effect incubated for 45 mins by plaque formation assay; type: functional, organism-based; conditions: BHK-21, 0.75 h
[7] = tested on: Dengue virus; assay: Antiviral activity against DENV; type: functional, organism-based
[8] = tested on: dengue virus type 4; assay: Antiviral activity against DENV4 infected in hamster BHK-21 cells assessed as inhibition of virus induced cytopathic effect incubated for 45 mins by focus-formation assay; type: functional, organism-based; conditions: BHK-21, 0.75 h
[9] = Inhibition of DENV1 (US/Hawaii/1944) RdRP expressed in Escherichia coli Rosetta2(DE3) incubated for 180 mins in presence of ATP,GTP,and UTP by scintillation counter analysis; parameters: species or system dengue virus type 1
[10] = tested on: dengue virus type 1; assay: Antiviral activity against DENV1 infected in hamster BHK-21 cells assessed as inhibition of virus induced cytopathic effect by viral tox-glo assay; type: functional, organism-based
[11] = Inhibition of DENV4 (MY01-22713) RdRP expressed in Escherichia coli Rosetta2(DE3) incubated for 180 mins in presence of ATP,GTP,and UTP by scintillation counter analysis; parameters: species or system dengue virus type 4
[12] = Inhibition of DENV2 His6-tagged recombinant NGC RdRP expressed in Escherichia coli Rosetta2(DE3) measured after 180 mins in presence of NTP by scintillation counter analysis; parameters: species or system dengue virus type 2
[13] = tested on: dengue virus type 3; assay: Antiviral activity against DENV3 infected in hamster BHK-21 cells assessed as inhibition of virus induced cytopathic effect by viral tox-glo assay; type: functional, organism-based
[14] = Inhibition of DENV3 (MY00-22366) RdRP expressed in Escherichia coli Rosetta2(DE3) incubated for 180 mins in presence of ATP,GTP,and UTP by scintillation counter analysis; parameters: species or system dengue virus type 3
[15] = tested on: dengue virus type 2; assay: Antiviral activity against DENV2 infected in hamster BHK-21 cells assessed as inhibition of virus induced cytopathic effect by viral tox-glo assay; type: functional, organism-based
[16] = tested on: dengue virus type 4; assay: Antiviral activity against DENV4 infected in hamster BHK-21 cells assessed as inhibition of virus induced cytopathic effect by viral tox-glo assay; type: functional, organism-based
[17] = tested on: dengue virus type 2; assay: Antiviral activity against DENV2; type: functional, organism-based
[18] = tested on: Aedes aegypti; assay: Larvicidal activity against Aedes aegypti assessed as lethal dose per mosquito measured for 24 hrs; type: functional
[19] = tested on: Aedes aegypti; assay: Larvicidal activity against Aedes aegypti assessed as mortality rate at 5 ug per mosquito measured after 24 hrs relative to control; type: functional; conditions: dose 5 µg
[20] = tested on: dengue virus type 3; assay: Antiviral activity against DENV3 infected in African green monkey Vero cells assessed as inhibition of virus induced cytopathic effect incubated for 45 mins by focus-formation assay; type: functional, organism-based; conditions: 0.75 h
[21] = tested on: dengue virus type 2; assay: Antiviral activity against DENV2 infected in African green monkey Vero cells assessed as inhibition of viral replication measured after 48 hrs by RT-PCR analysis; type: functional, organism-based
[22] = Cytotoxicity against African green monkey Vero cells assessed as cell growth inhibition after 48 hrs by MTT assay; type: toxicity, cell-based; conditions: chlorocebus sabaeus
[23] = Selectivity Index, ratio of CC50 for African green monkey Vero cells to EC50 for antiviral activity against DENV2 infected in African green monkey Vero cells; type: toxicity; conditions: Vero cells (CC50) and DENV2-infected Vero cells (EC50)
[24] = Cytotoxicity against hamster BHK-21 cells assessed as cell growth inhibition after 48 hrs by MTT assay; type: toxicity, cell-based, Mesocricetus auratus
[25] = Selectivity Index, ratio of CC50 for hamster BHK-21 cells to EC50 for antiviral activity against DENV2 infected in asian tiger mosquito C6/36 cells; type: toxicity; conditions: BHK-21 cells (CC50) and DENV2-infected C6/36 cells (EC50)
[26] = tested on: dengue virus type 2; assay: Antiviral activity against DENV2 infected in asian tiger mosquito C6/36 cells assessed as inhibition of virus induced cytopathic effect measured after 96 hrs by methylene blue staining based microscopic analysis; type: functional, organism-based; conditions: C6/36, 96 h
[27] = tested on: dengue virus type 1; assay: Antiviral activity against DENV1 infected in hamster BHK-21 cells assessed as inhibition of virus induced cytopathic effect incubated for 45 mins by focus-formation assay; type: functional, organism-based; conditions: BHK-21, 0.75 h

Cc1[nH]c2ccc(Br)cc2c1C
LC90 [1]: 14.74 µM | LC50 [1]: 10.6 µM

O=C1N/C(=N\c2nnc(-c3ccccc3Cl)s2)S/C1=C\c1cccc(F)c1
IC50 [2]: 2.1 µM

O=C1c2ccccc2C(=O)N1CCCCSc1nnc(-c2ccc(NS(=O)(=O)c3ccc(C(F)(F)F)cc3)cc2)o1
inhibition [3]: 77.6% | IC50 [4]: 15.1 µM

O=c1c2ccccc2sn1-c1ccccc1O
inhibition [5]: 89%

FC(F)(F)Oc1cccc(Nc2nccc(Nc3ccc(C(F)(F)F)cc3)n2)c1
IC50 [6]: 5 µM

O=C1N/C(=N\c2nnc(-c3ccccc3F)s2)S/C1=C\c1cccc(F)c1
IC50 [2]: 7.2 µM

COc1cccc(Nc2ccnc3ccc(C(F)(F)F)cc23)c1
EC50 [7]: 0.82 µM

FC(F)(F)Oc1ccccc1Nc1nccc(Nc2ccc(C(F)(F)F)cc2)n1
IC50 [8]: 5 µM

O=C(NO)c1ncc(CS(=O)(=O)c2ccccc2)c(CO)c1O
IC50 [9]: 5.7 µM | EC50 [10]: 2.7 µM | IC50 [11]: 5 µM | IC50 [12]: 6 µM | EC50 [13]: 2.7 µM | IC50 [14]: 6.7 µM | EC50 [15]: 2.8 µM | EC50 [16]: 2.2 µM

O=C1N/C(=N\c2nnc(-c3cccc(F)c3)s2)S/C1=C\c1c(Cl)cccc1Cl
IC50 [2]: 5.8 µM

O=c1c2ccccc2sn1-c1ccc(Br)cc1
inhibition [5]: 80%

O=C1c2ccccc2C(=O)N1CCCSc1nnc(-c2ccc(NS(=O)(=O)c3ccc(C(F)(F)F)cc3)cc2)o1
inhibition [3]: 99.9% | IC50 [4]: 13.9 µM

O=C1N/C(=N\c2nnc(-c3cccc(F)c3)s2)S/C1=C\c1cccc(F)c1
IC50 [2]: 2.3 µM

COc1ccc([C@@H]2N(Nc3ccc([N+](=O)[O-])cc3)C(=O)[C@@H]3Cc4ccccc4N23)cc1OC
EC50 [17]: 9.35 µM

CS(=O)(=O)N1CCN(c2nnc(-c3ccc(Cl)cc3Cl)o2)C1=O
LD50 [18]: 2.39 µg | Activity [19]: 86.7%

CS(=O)(=O)N1CCN(c2nnc(-c3ccc(Br)cc3)o2)C1=O
LD50 [18]: 3.55 µg | Activity [19]: 86.7%

O=c1c2ccccc2sn1-c1ccccc1Cl
inhibition [5]: 94%

CC(C)(C)[Si](C)(C)Oc1ccc(C2N(Nc3ccc([N+](=O)[O-])cc3)C(=O)[C@@H]3Cc4ccccc4N23)cc1 (stereo not given in full)
EC50 [17]: 4.79 µM

O=C1N=Cc2ccc(Nc3ccnc4ccc(Br)cc34)cc21
EC50 [7]: 0.64 µM | EC90 [7]: 1.5 µM

Fc1cc2cn[nH]c2cc1Nc1ccnc2ccc(Br)cc12
EC50 [7]: 0.69 µM | EC90 [7]: 4 µM

FC(F)(F)Oc1cccc(Nc2ccnc(Nc3cccc(OC(F)(F)F)c3)n2)c1
IC50 [20]: 5 µM

Cc1ccc(S(=O)(=O)Nc2ccc(-c3nnc(SCc4ccccc4C(F)(F)F)o3)cc2)cc1
inhibition [3]: 80.8% | IC50 [4]: 24 µM

CCCc1cc(=O)oc2c(C(=O)CC(C)C)c(O)c(CC=C(C)C)c(O)c12
EC50 [21]: 2.6 µg/mL (≈ 6.98 µM) | CC50 at 48 h [22]: 550 µg/mL (≈ 1480 µM) | selectivity ratio [23]: 212

Cc1ccc(-c2nc3nc4c(c(N5CCN(Cc6ccc7c(c6)OCO7)CC5)n3n2)CCC4)cc1
CC50 at 48 h [24]: 66 µM | selectivity ratio [25]: 14.7 | EC50 [26]: 4.5 µM

OCCN1CCN(c2nccc(Nc3ccc(-c4ccccc4)cc3)n2)CC1
LC90 [1]: 30.13 µM | LC50 [1]: 19.9 µM

CS(=O)(=O)N1CCN(c2nnc(-c3ccccc3)o2)C1=O
Activity [19]: 73.3%

Cc1ccc(S(=O)(=O)Nc2ccc(-c3nnc(SCc4ccc(C(F)(F)F)cc4)o3)cc2)cc1
inhibition [3]: 83.9% | IC50 [4]: 25.2 µM

Cc1cc(OC(F)(F)F)ccc1Nc1ccnc(Nc2ccccc2OC(F)(F)F)n1
IC50 [6]: 5 µM

CS(=O)(=O)N1CCN(c2nnc(-c3ccc(F)cc3)o2)C1=O
Activity [19]: 70%

CNc1cccc(Nc2ccnc3ccc(Br)cc23)c1
EC50 [7]: 0.24 µM

FC(F)(F)Oc1ccc(Nc2ccnc(Nc3ccccc3OC(F)(F)F)n2)cc1
IC50 [6]: 5 µM

Cc1ccc(S(=O)(=O)Nc2ccc(-c3nnc(SCc4cccc(C(F)(F)F)c4)o3)cc2)cc1
inhibition [3]: 80.4% | IC50 [4]: 23.9 µM

FC(F)(F)Oc1ccc(Nc2ccnc(Nc3cccc(OC(F)(F)F)c3)n2)cc1
IC50 [27]: 4 µM

CC(C)CC(=O)c1c(O)c2c(c3c(-c4ccccc4)cc(=O)oc13)OC(C)(C)C=C2 [ISOMAMMEIGIN]
EC50 [21]: 9.6 µg/mL (≈ 23.7 µM) | CC50 at 48 h [22]: 3150 µg/mL (≈ 7790 µM) | selectivity ratio [23]: 328

Cc1[nH]c2c(C(=O)O)cccc2c1C
LC90 [1]: >528.51 µM | LC50 [1]: > 854 µM

Oc1cccc(Nc2ccnc3ccc(Br)cc23)c1
EC50 [7]: 0.63 µM

Cc1cc([N+](=O)[O-])ccc1-n1sc2ccccc2c1=O
inhibition [5]: 92%

O=C1N/C(=N\c2nnc(-c3cccnc3)s2)S/C1=C\c1cccc(F)c1
IC50 [2]: 5.5 µM

O=c1c2ccccc2sn1-c1ccccc1[N+](=O)[O-]
inhibition [5]: 72%

O=c1c2ccccc2sn1-c1c(Cl)cccc1Cl
inhibition [5]: 94%
